Experimental data: patent publication US20100292231A1, “Indazole Compounds for Treating Inflammatory Disorders, Demyelinating Disorders and Cancers” (priority 2007, published 2010)
Read-outs that look alike come from different tables or passages of the source.

Columns and labels:
[1] = test system: MdaMb231 cells; test: in vitro scratch (cell migration) assay; type: cell-based; details: for concentration resulting in inhibition of cell motility / migration: Mda231 cells, after 48 hrs; for Migration: Table 5 summary, concentration inhibiting migration
Procedure: The in vitro scratch assay is used to determine the ability of cancer cells to migrate into and close an open wound; such migration is considered to have a role in metastasis of tumor cells.
Cells were plated in gelatin-coated 6-well plates and grown until a confluent monolayer was formed. When confluent, a straight scratch was made with a p200 pipette tip, cells were washed and compounds were added at concentrations of 1 μM, 2.5 μM, 5 μM, 10 μM and 20 μM. Images were taken at specific reference points at 0, 24 and 48 hours with Zeiss Axiovert 40 CFL microscope and Axiocam MRc5 camera and the ability of the cells to move in and close the wound was measured.
The data is presented in FIG. 1, which is a bar plot of percent cell migration into the “wound” in each sample (measured with respect to the control) and FIG. 2, which is a plot of percent wound confluence as a function of time (measured with respect to the control).

[2] = target: T1, FLT3 D835Y (Homo sapiens, UniProt P36888, D835Y); test: Kinase EC50 (10 pt curve or estimate, ATP Kmapp); type: biochemical; details: from 10 pt curve or estimate based on 1 μm inhibition assay at ATP Kmapp
T1 construct: purchased Invitrogen (SelectScreen platform)
T1 sequence (P36888 27-993 D835Y): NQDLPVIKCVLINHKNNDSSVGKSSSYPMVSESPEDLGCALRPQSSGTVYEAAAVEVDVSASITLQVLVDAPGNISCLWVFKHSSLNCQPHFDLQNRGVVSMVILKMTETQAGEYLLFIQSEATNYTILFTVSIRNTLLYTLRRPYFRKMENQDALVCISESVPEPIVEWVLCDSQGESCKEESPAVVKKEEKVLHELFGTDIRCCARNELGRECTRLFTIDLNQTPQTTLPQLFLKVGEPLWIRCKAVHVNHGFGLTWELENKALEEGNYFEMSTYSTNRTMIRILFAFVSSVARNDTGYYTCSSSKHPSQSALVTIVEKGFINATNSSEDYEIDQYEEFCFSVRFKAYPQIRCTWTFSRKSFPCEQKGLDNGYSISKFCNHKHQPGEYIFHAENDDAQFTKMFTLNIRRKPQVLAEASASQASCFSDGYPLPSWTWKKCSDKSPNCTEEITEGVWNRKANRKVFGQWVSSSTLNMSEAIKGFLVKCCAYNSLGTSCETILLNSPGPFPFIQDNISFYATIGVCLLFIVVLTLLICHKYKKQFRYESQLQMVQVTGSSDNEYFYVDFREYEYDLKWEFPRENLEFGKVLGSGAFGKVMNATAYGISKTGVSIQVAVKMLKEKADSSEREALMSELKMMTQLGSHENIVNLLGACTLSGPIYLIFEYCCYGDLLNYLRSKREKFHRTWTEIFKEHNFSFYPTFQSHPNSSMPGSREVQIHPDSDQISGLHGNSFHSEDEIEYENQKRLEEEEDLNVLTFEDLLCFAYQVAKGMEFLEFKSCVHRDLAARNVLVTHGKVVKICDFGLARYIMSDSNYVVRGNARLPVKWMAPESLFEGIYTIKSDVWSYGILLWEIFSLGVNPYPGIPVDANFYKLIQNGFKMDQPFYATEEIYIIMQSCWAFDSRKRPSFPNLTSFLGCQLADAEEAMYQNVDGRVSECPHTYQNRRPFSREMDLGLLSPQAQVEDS

[3] = test system: MV4-11 (leukemia) cell line; test: sulforhodamine B (SRB) cytotoxicity assay; type: cell-based; details: Homo sapiens
Procedure: (§1) The cytotoxic activity of compounds listed in Table 5 was determined with a sulforhodamine B (SRB) assay on panel of cell lines, including MdaMb231 (breast cancer), MV4-11 (leukemia), PC-3 (prostate cancer), U266B1 (multiple myeloma), C7 macrophages, and Raw264.7 (murine macrophage-like cells).
(§2) Cells growing in relevant media were seeded in a 96 well plate and left to adhere overnight. Cells were plated at appropriate cell densities: • MV4-11: 20.000 cells/well • Mda-Mb231: 6000 cells/well • C7: 10.000 cells/well • Raw264.7: 2000 cells/well • PC-3: 6000 cells/well • U266B1: 40.000 cells/well.
(§3) After a 3 day incubation period (6 days for C7 and Raw264.7) cells were fixed with trichloroacetic acid (TCA) to end concentration of 10% for adherent cells and 16% end concentration for suspension cells for 1 hr at 4° C. before washing. Cells were stained with 0.4% sulforhodamine-B dye (SRB) in 1% acetic acid for 30 minutes and washed in 1% acetic acid. To solubilize the dye 100 μl 10 mM Tris, pH 10.5 was added and the absorbance was read at 564 nm. IC50 values were generated using the SoftMAX Pro™ software. The data is presented below in Tables 6 through 11.

[4] = test system: MdaMb231 cells; test: BrdU cell proliferation assay; type: cell-based; details: for concentration at which cell proliferation was inhibited (BrdU): MdaMb231 cells, 24 hour treatment; for BrdU (Inhibition of cell proliferation): Table 5 summary, concentration inhibiting proliferation
Procedure: Representative compounds of the present invention were evaluated in a BrdU assay to determine their effect on the cell proliferation of MdaMb231 cells.
The effect of the inventive compounds on cell proliferation was analyzed by detecting 5-Bromo-2′-deoxy-uridine (BrdU) incorporation after 24 hour treatment with the test compounds. The cell proliferation ELISA BrdU kit (Roche™ cat. No. 11 647 229 001) was used according to manufacturer's protocol. Cells were plated at 10.000 cells/well. The next day compounds were added in concentration range of 2.5, 5, 10 and 20 μM.
After 24 hours, 12 μl/well BrdU labelling solution was added and cells were incubated for 6 hours at 37° C./5% CO2 before labeling solution was removed. Cells were fixed with 200 μl FixDenat™ solution for 30 minutes. After removal of fixative 100 μl BrdU-peroxidase working solution was added and cells were incubated for 90 minutes. Cells were subsequently washed three times. 100 μl substrate solution was added and after 30 minutes the absorbance was read at 370 nm.

[5] = test system: PC-3 (prostate cancer) cell line; test: sulforhodamine B (SRB) cytotoxicity assay; type: cell-based; details: Homo sapiens, PC-3, 72 h; 100 μM highest concentration, diluted 1:5; 3 day incubation; read-out: IC50 Measured Against PC-3 Cell Line
Procedure: as §1, §2
as §3, with “Cells were incubated before the compounds were added the next day to a top concentration of 100 μM and serially diluted 1 in 5 across the plate. After” for “After”

[6] = MV4-11, 72 h, 50 μM highest concentration, diluted 1:4, 3 day incubation, read-out: IC50 Measured Against MV4-11 Cell Line
[7] = MV4-11, 72 h, 100 μM highest concentration, diluted 1:5, 3 day incubation, read-out: IC50 Measured Against MV4-11 Cell Line
[8] = MV4-11, Table 5 summary, read-out: IC50 SRB assay MV4-11

| Compound | concentration resulting in inhibition of cell motility / migration [1] [µM] | Migration [1] [μm] | EC50 [2] [nM] | IC50 [3, 6] [nM] | IC50 [3, 7] [nM] | IC50 [3, 8] [nM] | concentration at which cell proliferation was inhibited (BrdU) [4] [µM] | BrdU (Inhibition of cell proliferation) [4] [μm] | IC50 [5] [nM] |
| --- | --- | --- | --- | --- | --- | --- | --- | --- | --- |
| CCN(CC)CCNc1ccc2ncn3c4ccc(O)cc4c(=O)c1c23 [Symadex, 5-(2-(diethylamino)ethylamino)-8-hydroxy-6H-imidazo[4,5,1-de]acridin-6-one, reference compound] | 10 | 10 | 24 | 28 | 12 | 12 | – | – | – |
| CN(C)CCNc1ccc2ncn3c4ccc5[nH]ncc5c4c(=O)c1c23 [(XII)] | 5 | >5 | 3 | – | < 1 | < 1 | 2.5 | 2.5 | – |
| CN1CCN(CCCNc2ccc3ncn4c5ccc6[nH]ncc6c5c(=O)c2c34)CC1 [(XVII)] | 5 | 5 | 5 | 82 | – | 82 | – | >20 | 9650 |
| CN(C)CCCNc1ccc2ncn3c4ccc5[nH]ncc5c4c(=O)c1c23 [Compound (IV)] | 5 | 1 | 12 | – | < 1 | < 1 | 2.5 | 2.5 | 2970 |
| CC(CCN1CCOCC1)Nc1ccc2ncn3c4ccc5[nH]ncc5c4c(=O)c1c23 (stereo not drawn) [(XVI)] | 5 | 1 | 8 | – | 121 | 121 | 20 | 5 | 8920 |
| O=c1c2c(NCCCN3CCOCC3)ccc3ncn(c4ccc5[nH]ncc5c14)c32 [(X)] | 5 | 5 | 11 | – | 2 | 2 | 20 | 20 | 17300 |
| CCN(CC)CCCNc1ccc2ncn3c4ccc5[nH]ncc5c4c(=O)c1c23 [Compound (XV)] | 1 | 1 | 4 | < 1 | – | < 1 | 20 | – | 32800 |
